One series addresses Prothrombin (Homo sapiens, UniProt P00734). Kind of series: Inhibition of thrombin.
The nature of series [1]: Anticoagulant activity in human plasma by aPTT assay. Type of series: functional.
Series [2] can be described thus: Inhibition of Plasmin. More on the design: species or system Homo sapiens.
Series [3] can be described thus: Bioavailability in rat at 5 mg/kg po. Format: ADME, organism-based. To be noted: in vivo.
A further series relates to Rattus norvegicus. The experiment in a line: Clearance in bile of rat at 5 mg/kg po. Format: ADME, organism-based. More on the design: dose 5 mg/kg, route oral. To be noted: in vivo.
Series [4] in a line: % of dose in urine of rat at 5 mg/kg po. Format: ADME, organism-based. More on the design: dose 5 mg/kg, route oral. To be noted: read-out: Compound in urine.
A further series has as its target Trypsin (Homo sapiens, UniProt P07477+P07478+P35030). The experiment in a line: Inhibition of trypsin. Type of series: protein assay.
A short description of series [5]: Half life in iv dosed rat. To be noted: in vivo. Format: ADME, organism-based.
Series [6] concerns the target Urokinase-type plasminogen activator (Homo sapiens, UniProt P00749). Kind of series: Inhibition of uPA.
Series [7] concerns Plasma. Kind of series: Anticoagulant activity in human plasma by TT assay. Type of series: functional.
Series [8] has as its system Plasma. Kind of series: Anticoagulant activity in human plasma by PT assay. Type of series: functional.
Series [9] can be described thus: Permeability across Caco-2 cell membrane. Type of series: ADME, cell-based. To be noted: human. On the technique in general: Passage across Caco-2 layers is used to estimate intestinal permeability.
A further series addresses Coagulation factor X (Homo sapiens, UniProt P00742).

SMILES strings stand for the structures. pKi: −log10 of the molar value.

Sequence of Coagulation factor X (P00742 41-179 limits assumed): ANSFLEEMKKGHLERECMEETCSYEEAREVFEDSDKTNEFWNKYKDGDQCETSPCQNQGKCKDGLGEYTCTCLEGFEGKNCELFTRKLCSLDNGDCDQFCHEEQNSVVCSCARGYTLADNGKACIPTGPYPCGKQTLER
Sequence of Coagulation factor X (P00742 235-488 limits assumed): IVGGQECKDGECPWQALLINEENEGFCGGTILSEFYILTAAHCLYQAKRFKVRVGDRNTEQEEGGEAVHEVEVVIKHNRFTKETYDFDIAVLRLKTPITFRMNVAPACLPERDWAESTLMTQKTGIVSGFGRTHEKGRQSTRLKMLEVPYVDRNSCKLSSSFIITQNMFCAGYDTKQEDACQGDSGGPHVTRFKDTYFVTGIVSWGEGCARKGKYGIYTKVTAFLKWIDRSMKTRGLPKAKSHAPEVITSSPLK

In general, pKi refers to the negative decadic logarithm of the Ki, by convention in mol/L. A high value points to a small Ki. What is called bioavailability is dose-corrected exposure relative to a reference, in per cent. By Ki is commonly meant the equilibrium dissociation constant of an inhibitor or competing ligand from its target. The half-life is the time needed for the level to fall by half in the phase considered. Lower therefore signals fast loss. Regarding `NCc1ccc(Cl)cc1CNC(=O)CNC(=O)[C@@H](CCc1cccc[n+]1[O-])NS(=O)(=O)Cc1ccccc1`, the pKi on Prothrombin was 6.77; in [2], 3.03; in [6] it was 3.82. Moreover, the figures for the IC200 (in series [1]; with Plasma [7]) were 0.16 µM and 0.5 µM, respectively. The same compound came in with a bioavailability in series [3] of under 5%. In the series on Rattus norvegicus, this compound displayed a CL_biliary of 75%. For the same compound, the dose excreted in series [4] came out at 15%. This compound also had a Ki on Trypsin of 6500 nM. Besides, in series [5], the half-life is under 20 min.
As a reminder, the Papp is a coefficient for how fast a substance crosses the barrier. A lower Papp goes with poor permeation. For the compound `CCOC(=O)CN[C@H](CCc1ccccn1)C(=O)N1CCC[C@H]1C(=O)NCc1cc(Cl)ccc1CN`, the pKi was 8.42 on Prothrombin, under 5.30 in [2] and under 5.30 in [6]. Further, the IC200 in series [1] came out at 0.23 µM; in the series with Plasma [8], 0.6 µM; in the series on Plasma [7], 0.09 µM. Besides, the Ki at Trypsin was over 500 nM. Besides, in [9], the Papp was found to be 2.4 ×10⁻⁶ cm/s.
Consider `NCc1ccc(Cl)cc1CNC(=O)CNC(=O)C(CCc1cccc[n+]1[O-])NC(=O)C(=O)O` (stereo unspecified), for which the pKi on Prothrombin is 4.74; in [2], under 5.30; on Coagulation factor X, 8.31; in [6] it was under 5.30. Also, the IC200 in series [1] came to 1.85 µM; in the series with Plasma [8], 0.13 µM; in the series with Plasma [7] it was 15 µM. The Ki on Trypsin was over 500 nM. The half-life in series [5] was 30 min.
As for `CCOC(=O)CN[C@H](CCc1ccc(O)cc1)C(=O)N1CCC[C@H]1C(=O)NCc1cc(Cl)ccc1CN`, the pKi was 8.44 at Prothrombin, under 5.30 in series [2], 7.77 at Coagulation factor X and under 5.30 in series [6]. Further, the IC200 worked out at 0.58 µM in series [1], 0.85 µM with Plasma [8] and 0.23 µM in the series on Plasma [7]. Besides, on Trypsin, the Ki was over 500 nM. The compound also came in with a Papp in series [9] of 8.9 ×10⁻⁶ cm/s.

(Values after ChEMBL document CHEMBL1145355, “From selective substrate analogue factor Xa inhibitors to dual inhibitors of thrombin and factor Xa. Part 3” (Bioorg Med Chem Lett, 2007).)
